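Protocol summary: plate cells (96-well), add compound at 5 concentrations, incubate 48 h, interpolate endpoints linearly. TGI: total growth inhibition.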
Key:
Assay in all cases: NCI anticancer screen, dose series, 48 h
[1] = system: HT29 colon
[2] = system: HCT-15 colon
[3] = system: NCI/ADR-RES ovarian
[4] = system: DU-145 prostate
[5] = system: NCI-H23 lung
[6] = system: OVCAR-3 ovarian
[7] = system: UACC-257 melanoma
[8] = system: U251 CNS
[9] = system: A498 renal
[10] = system: HCC-2998 colon
[11] = system: UACC-62 melanoma
[12] = system: EKVX NSCLC
[13] = system: SW-620 colon
[14] = system: CAKI-1 renal
[15] = system: MCF7 breast
[16] = system: CCRF-CEM leukemia
[17] = system: MDA-N
[18] = system: OVCAR-5 ovarian
[19] = system: SK-OV-3 ovarian
[20] = system: OVCAR-4 ovarian
[21] = system: SNB-75 CNS
[22] = system: SNB-19 CNS
[23] = system: SK-MEL-28 melanoma
[24] = system: OVCAR-8 ovarian
[25] = system: MOLT-4 leukemia
[26] = system: RXF 393 renal
[27] = system: MALME-3M melanoma
[28] = system: SR leukemia
[29] = system: HCT-116 colon
[30] = system: SF-268 CNS
[31] = system: SF-295 CNS
[32] = system: UO-31 renal
[33] = system: T-47D breast
[34] = system: SF-539 CNS
[35] = system: K-562 leukemia
[36] = system: PC-3 prostate
[37] = system: IGROV1 ovarian
[38] = system: HOP-92 NSCLC
[39] = system: M14 melanoma
[40] = system: KM12 colon
[41] = system: NCI-H522 lung
[42] = system: BT-549 breast
[43] = system: COLO 205 colon
[44] = system: HOP-62 NSCLC
[45] = system: ACHN renal
[46] = system: SN12C renal
[47] = system: SK-MEL-5 melanoma
[48] = system: TK-10 renal
[49] = system: MDA-MB-231 breast
[50] = system: HS 578T breast
[51] = system: NCI-H460 lung
[52] = system: 786-0 renal
[53] = system: A549 NSCLC
[54] = system: MDA-MB-435
[55] = system: SK-MEL-2 melanoma
[56] = system: LOX IMVI melanoma
[57] = system: NCI-H226 lung
[58] = system: RPMI-8226 leukemia
[59] = system: HL-60(TB) leukemia

## c1csc(-c2cc(-c3ccsc3)c(-c3ccsc3)s2)c1
[1]
  TGI: > 100 µM
[2]
  TGI: > 100 µM
[3]
  TGI: > 100 µM
[4]
  TGI: > 100 µM
[5]
  TGI: > 100 µM
[6]
  TGI: > 100 µM
[7]
  TGI: > 100 µM
[8]
  TGI: > 100 µM
[9]
  TGI: > 100 µM
[10]
  TGI: > 100 µM
[11]
  TGI: > 100 µM
[12]
  TGI: 90.8 µM
[13]
  TGI: > 100 µM
[14]
  TGI: > 100 µM
[15]
  TGI: > 100 µM
[16]
  TGI: > 100 µM
[17]
  TGI: > 100 µM
[18]
  TGI: > 100 µM
[19]
  TGI: > 100 µM
[20]
  TGI: > 100 µM
[21]
  TGI: > 100 µM
[22]
  TGI: > 100 µM
[23]
  TGI: > 100 µM
[24]
  TGI: > 100 µM
[25]
  TGI: > 100 µM
[26]
  TGI: > 100 µM
[27]
  TGI: > 100 µM
[28]
  TGI: > 100 µM
[29]
  TGI: > 100 µM
[30]
  TGI: > 100 µM
[31]
  TGI: > 100 µM
[32]
  TGI: > 100 µM
[33]
  TGI: 54.2 µM
[34]
  TGI: > 100 µM
[35]
  TGI: > 100 µM
[36]
  TGI: > 100 µM
[37]
  TGI: > 100 µM
[38]
  TGI: > 100 µM
[39]
  TGI: > 100 µM
[40]
  TGI: > 100 µM
[41]
  TGI: > 100 µM
[42]
  TGI: > 100 µM
[43]
  TGI: > 100 µM
[44]
  TGI: > 100 µM
[45]
  TGI: > 100 µM
[46]
  TGI: > 100 µM
[47]
  TGI: > 100 µM
[48]
  TGI: > 100 µM
[49]
  TGI: > 100 µM
[50]
  TGI: > 100 µM
[51]
  TGI: > 100 µM
[52]
  TGI: > 100 µM
[53]
  TGI: > 100 µM
[54]
  TGI: > 100 µM

## Cc1cc(S(=O)(=O)n2cc[nH]c2=O)c(SCCCN(C)C)cc1Cl
[1]
  TGI: > 100 µM
[2]
  TGI: > 100 µM
[3]
  TGI: > 100 µM
[4]
  TGI: > 100 µM
[5]
  TGI: > 100 µM
[6]
  TGI: > 100 µM
[7]
  TGI: > 100 µM
[8]
  TGI: > 100 µM
[9]
  TGI: > 100 µM
[10]
  TGI: > 100 µM
[11]
  TGI: > 100 µM
[12]
  TGI: > 100 µM
[55]
  TGI: > 100 µM
[13]
  TGI: > 100 µM
[14]
  TGI: > 100 µM
[15]
  TGI: > 100 µM
[16]
  TGI: > 100 µM
[17]
  TGI: > 100 µM
[18]
  TGI: > 100 µM
[19]
  TGI: > 100 µM
[20]
  TGI: > 100 µM
[56]
  TGI: > 100 µM
[22]
  TGI: > 100 µM
[23]
  TGI: > 100 µM
[24]
  TGI: > 100 µM
[25]
  TGI: > 100 µM
[26]
  TGI: > 100 µM
[27]
  TGI: > 100 µM
[28]
  TGI: > 100 µM
[29]
  TGI: > 100 µM
[30]
  TGI: > 100 µM
[31]
  TGI: > 100 µM
[32]
  TGI: > 100 µM
[33]
  TGI: > 100 µM
[34]
  TGI: > 100 µM
[35]
  TGI: > 100 µM
[36]
  TGI: > 100 µM
[57]
  TGI: > 100 µM
[37]
  TGI: > 100 µM
[39]
  TGI: > 100 µM
[40]
  TGI: > 100 µM
[41]
  TGI: > 100 µM
[42]
  TGI: > 100 µM
[43]
  TGI: > 100 µM
[44]
  TGI: > 100 µM
[45]
  TGI: > 100 µM
[46]
  TGI: > 100 µM
[47]
  TGI: > 100 µM
[48]
  TGI: > 100 µM
[49]
  TGI: > 100 µM
[50]
  TGI: > 100 µM
[51]
  TGI: > 100 µM
[52]
  TGI: > 100 µM
[53]
  TGI: > 100 µM
[54]
  TGI: > 100 µM

## O=C1C[C@@H](Sc2ccccc2)C2(OCCO2)C2ON3CCCC[C@H]3[C@H]12 (some centres not stated)
[1]
  TGI: 15.7 µM
[2]
  TGI: > 29.6 µM
[3]
  TGI: 18.9 µM
[4]
  TGI: 24.5 µM
[5]
  TGI: 22.8 µM
[6]
  TGI: 26.8 µM
[7]
  TGI: 28.1 µM
[8]
  TGI: > 39.5 µM
[9]
  TGI: > 95.3 µM
[11]
  TGI: 18.5 µM
[12]
  TGI: 26.1 µM
[55]
  TGI: 39.8 µM
[13]
  TGI: 14.4 µM
[14]
  TGI: 21 µM
[15]
  TGI: 14.3 µM
[16]
  TGI: 4.71 µM
[17]
  TGI: 33.3 µM
[18]
  TGI: 33.5 µM
[19]
  TGI: > 100 µM
[20]
  TGI: 21.8 µM
[56]
  TGI: 10.1 µM
[21]
  TGI: 29.9 µM
[22]
  TGI: 32.1 µM
[23]
  TGI: 41.6 µM
[24]
  TGI: 13.9 µM
[25]
  TGI: 5.1 µM
[58]
  TGI: 12.5 µM
[26]
  TGI: 12.3 µM
[27]
  TGI: 22.9 µM
[28]
  TGI: 4.35 µM
[29]
  TGI: 16.7 µM
[59]
  TGI: 4.9 µM
[30]
  TGI: 23.3 µM
[31]
  TGI: 38.4 µM
[32]
  TGI: 17.3 µM
[33]
  TGI: 46.8 µM
[34]
  TGI: 4.5 µM
[35]
  TGI: 6.79 µM
[36]
  TGI: 24.2 µM
[57]
  TGI: 33.2 µM
[37]
  TGI: 19.2 µM
[38]
  TGI: 19.2 µM
[39]
  TGI: 30.3 µM
[40]
  TGI: 19.7 µM
[41]
  TGI: 6.93 µM
[42]
  TGI: 20.7 µM
[43]
  TGI: 27.1 µM
[44]
  TGI: 33 µM
[45]
  TGI: 6.33 µM
[46]
  TGI: 14.8 µM
[47]
  TGI: 20.7 µM
[48]
  TGI: 13 µM
[49]
  TGI: 25.9 µM
[50]
  TGI: 31 µM
[51]
  TGI: 28.8 µM
[52]
  TGI: 12.7 µM
[53]
  TGI: 31.4 µM
[54]
  TGI: 34.7 µM

— PubChem BioAssay (NCI)
